In PubChem BioAssay (NCI):
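Test compounds were applied to cells in 96-well plates for 48 hours at 5 doses. GI50: concentration for 50% inhibition of growth. TGI: concentration producing complete growth inhibition.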

Tests used:
Experiment in all cases: NCI anticancer screen, dose series, 48 h
MDA-MB-231 breast = tested on: MDA-MB-231 breast
RXF 393 renal = tested on: RXF 393 renal
SW-620 colon = tested on: SW-620 colon
A498 renal = tested on: A498 renal
PC-3 prostate = tested on: PC-3 prostate
SK-MEL-2 melanoma = tested on: SK-MEL-2 melanoma
SNB-75 CNS = tested on: SNB-75 CNS
SK-MEL-28 melanoma = tested on: SK-MEL-28 melanoma
IGROV1 ovarian = tested on: IGROV1 ovarian
CCRF-CEM leukemia = tested on: CCRF-CEM leukemia

SMILES	GI50 (MDA-MB-231 breast) [µM]	TGI (MDA-MB-231 breast) [µM]	GI50 (RXF 393 renal) [µM]	TGI (RXF 393 renal) [µM]	GI50 (SW-620 colon) [µM]	TGI (SW-620 colon) [µM]	GI50 (A498 renal) [µM]	TGI (A498 renal) [µM]	GI50 (PC-3 prostate) [µM]	TGI (PC-3 prostate) [µM]	GI50 (SK-MEL-2 melanoma) [µM]	TGI (SK-MEL-2 melanoma) [µM]	GI50 (SNB-75 CNS) [µM]	TGI (SNB-75 CNS) [µM]	GI50 (SK-MEL-28 melanoma) [µM]	TGI (SK-MEL-28 melanoma) [µM]	GI50 (IGROV1 ovarian) [µM]	TGI (IGROV1 ovarian) [µM]	TGI (CCRF-CEM leukemia) [µM]	GI50 (CCRF-CEM leukemia) [µM]
CCCN1C(=O)/C(=C/c2ccc(O)cc2)SC1=Nc1ccc(OC)cc1	14.1	31	11.7	28.3	18	48.3	9.61	22.7	14	31.7	37.1	> 100	17.8	46.1	19.4	41	30	> 100		
CCOC(=O)C1SC(=Nc2ccc(Cl)cc2C)N=C1C (stereo unspecified)				35.8		53.7		98.1				35.8		69.9		73.5		88		
CN(C)CCNC(=O)c1cccc2ncc(-c3ccccc3)nc12				18		63.5		31.4				27.9		32.9		36.1		> 74.6	56.8	
Cc1cc(C)nc(NS(=O)(=O)c2ccc(NC(=O)c3ccc(Cl)c4c(Nc5ccc(S(=O)(=O)N=C(N)N)cc5)c5ccccc5nc34)cc2)n1						76		> 100						> 100		> 100		> 100		
CN(C)CCC1(C2=CCCC2)CC/C(=C\c2ccccc2Cl)C1=O (stereo unspecified)				17.5		25.2		28.4				27.6				26.2		37.5	29	
CCC[CH2][Sn]([CH2]CCC)([O]C(=O)c1cc(F)cc(F)c1)[O][Sn]([CH2]CCC)([CH2]CCC)[O]C(=O)c1cc(F)cc(F)c1			0.423	1.56	0.626	1.92	1.43	2.83			1.02	2.2	1.26	2.71	1.14	2.38	1.64	3.31	0.886	0.101
COc1ccc(NC(=O)CCc2cc(C(C)(C)C)n[nH]2)cc1				> 100		> 100		> 100				> 100		> 100		> 100		> 100	> 100	
C/C(CCn1[nH]c(=O)ccc1=O)=N\Nc1ccc([N+](=O)[O-])cc1[N+](=O)[O-]				> 100		> 100		> 100				> 100		> 100		> 100		> 100	> 100	
CCOC(=O)c1c2cccccc2n2c(=O)cc(C)nc12				> 100		> 100		> 100				> 100				> 100		> 100	> 100	
O=C(O)CCSC(=O)Nc1ccccc1Cl				> 100		> 100		> 100						> 100		> 100		> 100	> 100	
